Patent US20060030720A1, “Method for synthesizing macrosphelides” (priority 2002, published 2006)

melting point: 94 to 95 °C
SMILES: C[C@H]1C/C=C/C(=O)O[C@@H](C)CC(=O)O[C@@H](C)C/C=C/C(=O)O1 [Example 1]
